According to PubChem BioAssay AID330 (DTP/NCI, 2004):
Values joined by “and” are separate entries in the source; they are usually repeats but may differ in a detail not shown here. Equal entries are not always repeated. Inconclusive results and toxic doses are left out.

Tested on: P388 leukemia ip, CD2F1 mice, survival T/C
Experiment: NCI In Vivo Anticancer Drug Screen. Data for tumor model P388 Leukemia (intraperitoneal) in CD2F1 (CDF1) mice
Details: endpoint: median survival time, higher = longer survival
Procedure, shortened: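 Mice carrying the transplanted tumor received test compound or vehicle. Survival was recorded in each group, and the value is the treated-group measurement divided by that of the vehicle-treated control group.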

[1] = dose: 60.0 mg/kg/injection, schedule: Q01DX005 (ip), vehicle: saline with Tween-80
[2] = dose: 50.0 mg/kg/injection, schedule: Q01DX009 (ip), vehicle: saline with Tween-80
[3] = dose: 100.0 mg/kg/injection, schedule: Q01DX009 (ip), vehicle: saline with Tween-80
[4] = dose: 100.0 mg/kg/injection, schedule: Q01DX009 (ip), vehicle: saline
[5] = dose: 200.0 mg/kg/injection, schedule: Q01DX009 (ip), vehicle: saline
[6] = dose: 120.0 mg/kg/injection, schedule: Q01DX005 (ip), vehicle: saline with Tween-80
[7] = dose: 240.0 mg/kg/injection, schedule: Q01DX005 (ip), vehicle: saline with Tween-80
[8] = dose: 100.0 mg/kg/injection, schedule: Q04DX002 (ip), vehicle: saline
[9] = dose: 50.0 mg/kg/injection, schedule: Q01DX005 (ip), vehicle: saline with Tween-80
[10] = dose: 100.0 mg/kg/injection, schedule: Q01DX005 (ip), vehicle: saline with Tween-80
[11] = dose: 200.0 mg/kg/injection, schedule: Q01DX005 (ip), vehicle: saline with Tween-80
[12] = dose: 200.0 mg/kg/injection, schedule: Q01DX009 (ip), vehicle: saline with Tween-80
[13] = dose: 50.0 mg/kg/injection, schedule: Q01DX001 (ip), vehicle: saline with Tween-80
[14] = dose: 100.0 mg/kg/injection, schedule: Q01DX001 (ip), vehicle: saline with Tween-80
[15] = dose: 25.0 mg/kg/injection, schedule: Q01DX005 (ip), vehicle: saline with Tween-80

## Cc1ccc2cccc(OC(=O)Nc3ccc(C)c(NC(=O)Oc4cccc5ccc(C)nc45)c3)c2n1
dose: 15.0 mg/kg/injection, schedule: Q01DX005 (ip), vehicle: saline with Tween-80
  T/C: 95 % of control
dose: 30.0 mg/kg/injection, schedule: Q01DX005 (ip), vehicle: saline with Tween-80
  T/C: 97 % of control
[1]
  T/C: 99 % of control and 93 % of control

## NS(=O)(=O)c1ccc(NCc2cnc3ccccc3c2)cc1
dose: 5.0 mg/kg/injection, schedule: Q01DX009 (ip), vehicle: saline
  T/C: 94 % of control
dose: 10.0 mg/kg/injection, schedule: Q01DX009 (ip), vehicle: saline
  T/C: 88 % of control
dose: 20.0 mg/kg/injection, schedule: Q01DX009 (ip), vehicle: saline
  T/C: 98 % of control

## CC(=O)Nc1ccc(C(/C=N\NC(N)=S)=N/NC(N)=S)cc1
dose: 25.0 mg/kg/injection, schedule: Q01DX009 (ip), vehicle: saline with Tween-80
  T/C: 99 % of control
[2]
  T/C: 97 % of control
[3]
  T/C: 105 % of control

## O=C1CCCCC1O (stereo not drawn)
dose: 50.0 mg/kg/injection, schedule: Q01DX009 (ip), vehicle: saline
  T/C: 104 % of control and 106 % of control
[4]
  T/C: 100 % of control and 103 % of control
[5]
  T/C: 110 % of control and 97 % of control
dose: 400.0 mg/kg/injection, schedule: Q01DX009 (ip), vehicle: saline
  T/C: 88 % of control and 95 % of control

## O=[N+]([O-])c1ccc(C2=C[P+](c3ccccc3)(c3ccccc3)C=C(c3ccccc3)O2)cc1
dose: 1.5 mg/kg/injection, schedule: Q01DX005 (ip), vehicle: saline with Tween-80
  T/C: 115 % of control
dose: 1.5 mg/kg/injection, schedule: Q01DX005 (ip), vehicle: saline
  T/C: 117 % of control
dose: 3.0 mg/kg/injection, schedule: Q01DX005 (ip), vehicle: saline with Tween-80
  T/C: 113 % of control
dose: 3.0 mg/kg/injection, schedule: Q01DX005 (ip), vehicle: saline
  T/C: 124 % of control

## O=C(O)CNC(=O)C(=O)c1c[nH]c2ccc([N+](=O)[O-])cc12
[1]
  T/C: 97 % of control
[6]
  T/C: 97 % of control
[7]
  T/C: 94 % of control

## O=CNc1nc[nH]c1-c1noc(=O)[nH]1
dose: 25.0 mg/kg/injection, schedule: Q04DX002 (ip), vehicle: saline
  T/C: 104 % of control
dose: 50.0 mg/kg/injection, schedule: Q04DX002 (ip), vehicle: saline
  T/C: 104 % of control
[8]
  T/C: 104 % of control and 110 % of control

## COc1cc2cc(-c3ccccc3)[n+](C)cc2cc1OC
dose: 12.5 mg/kg/injection, schedule: Q01DX001 (ip), vehicle: saline
  T/C: 95 % of control
dose: 25.0 mg/kg/injection, schedule: Q01DX001 (ip), vehicle: saline
  T/C: 110 % of control

## O=Cc1c2cnc(c1O)CSCc1ccc(cc1)CSC2
[9]
  T/C: 104 % of control
[10]
  T/C: 110 % of control
[11]
  T/C: 113 % of control

## CSC(=S)N/N=C(\C)c1ccccc1
dose: 1.56 mg/kg/injection, schedule: Q01DX009 (ip), vehicle: saline
  T/C: 99 % of control
dose: 3.12 mg/kg/injection, schedule: Q01DX009 (ip), vehicle: saline
  T/C: 100 % of control
dose: 6.25 mg/kg/injection, schedule: Q01DX009 (ip), vehicle: saline
  T/C: 94 % of control and 97 % of control
[4]
  T/C: 98 % of control
[5]
  T/C: 90 % of control

## Cc1nn(-c2ccc(Cl)cc2)c2nc(N)nc(N)c12
dose: 6.25 mg/kg/injection, schedule: Q04DX002 (ip), vehicle: Klucel (hydroxypropylcellulose) (HPC)
  T/C: 92 % of control
dose: 12.5 mg/kg/injection, schedule: Q04DX002 (ip), vehicle: Klucel (hydroxypropylcellulose) (HPC)
  T/C: 89 % of control and 93 % of control
dose: 25.0 mg/kg/injection, schedule: Q04DX002 (ip), vehicle: Klucel (hydroxypropylcellulose) (HPC)
  T/C: 92 % of control
dose: 50.0 mg/kg/injection, schedule: Q04DX002 (ip), vehicle: Klucel (hydroxypropylcellulose) (HPC)
  T/C: 89 % of control
dose: 100.0 mg/kg/injection, schedule: Q04DX002 (ip), vehicle: Klucel (hydroxypropylcellulose) (HPC)
  T/C: 105 % of control
dose: 200.0 mg/kg/injection, schedule: Q04DX002 (ip), vehicle: Klucel (hydroxypropylcellulose) (HPC)
  T/C: 115 % of control
dose: 400.0 mg/kg/injection, schedule: Q04DX002 (ip), vehicle: Klucel (hydroxypropylcellulose) (HPC)
  T/C: 113 % of control

## COc1cc2c3c(c1)/C(=N\Nc1ccccc1)CCN3CCC2
dose: 3.12 mg/kg/injection, schedule: Q01DX009 (ip), vehicle: DMSO
  T/C: 99 % of control

## Cc1ccc(NC(=O)Nc2ncn[nH]2)c(C)c1
[2]
  T/C: 107 % of control
[3]
  T/C: 100 % of control
[12]
  T/C: 107 % of control

## Cc1csc(N2C(=O)c3cccc4cccc(c34)C2=O)n1
[1]
  T/C: 110 % of control
[6]
  T/C: 96 % of control
[7]
  T/C: 96 % of control

## C=CCN(CC=C)/N=N/c1nc[nH]c1C(N)=O
[13]
  T/C: 104 % of control
[14]
  T/C: 90 % of control
dose: 200.0 mg/kg/injection, schedule: Q01DX001 (ip), vehicle: saline with Tween-80
  T/C: 95 % of control

## O=C1N=C2C=CC=CN2C(=O)C1Cc1ccccc1 (stereo not drawn)
[3]
  T/C: 120 % of control
[12]
  T/C: 110 % of control
dose: 400.0 mg/kg/injection, schedule: Q01DX009 (ip), vehicle: saline with Tween-80
  T/C: 90 % of control

## Nc1nc(Cl)nc2c1ncn2C1OC(CO)C(O)C1O (stereo not drawn)
dose: 3.1 mg/kg/injection, schedule: Q01DX010 (ip), vehicle: carboxymethylcellulose (CMC)
  T/C: 105 % of control
dose: 6.2 mg/kg/injection, schedule: Q01DX010 (ip), vehicle: carboxymethylcellulose (CMC)
  T/C: 120 % of control
dose: 25.0 mg/kg/injection, schedule: Q01DX010 (ip), vehicle: carboxymethylcellulose (CMC)
  T/C: 150 % of control

## O=C(O)c1ccc(-c2nn[nH]n2)cc1
dose: 6.25 mg/kg/injection, schedule: Q01DX009 (ip), vehicle: Klucel (hydroxypropylcellulose) (HPC)
  T/C: 107 % of control
dose: 12.5 mg/kg/injection, schedule: Q01DX009 (ip), vehicle: Klucel (hydroxypropylcellulose) (HPC)
  T/C: 103 % of control
dose: 25.0 mg/kg/injection, schedule: Q01DX009 (ip), vehicle: Klucel (hydroxypropylcellulose) (HPC)
  T/C: 110 % of control
dose: 100.0 mg/kg/injection, schedule: Q01DX009 (ip), vehicle: Klucel (hydroxypropylcellulose) (HPC)
  T/C: 92 % of control
dose: 200.0 mg/kg/injection, schedule: Q01DX009 (ip), vehicle: Klucel (hydroxypropylcellulose) (HPC)
  T/C: 89 % of control

## c1ccc2c(c1)Cc1c-2nc2ccccc2c1N1CCOCC1
[15]
  T/C: 100 % of control
[9]
  T/C: 106 % of control and 93 % of control
[10]
  T/C: 103 % of control and 112 % of control
[11]
  T/C: 119 % of control

## COC(=O)/C=C1\C[C@H]2C[C@]3(O)O[C@H](C[C@@H](O)CC(=O)O[C@@H]([C@@H](C)O)C[C@@H]4C/C(=C\C(=O)OC)[C@H](OC(C)=O)[C@@](O)(O4)C(C)(C)/C=C/[C@@H](C1)O2)C[C@H](OC(=O)CC(C)C)C3(C)C
dose: 3.0 micrograms/kg/injection, schedule: Q01DX009 (ip), vehicle: saline + alcohol
  T/C: 111 % of control
dose: 5.0 micrograms/kg/injection, schedule: Q01DX009 (ip), vehicle: saline + alcohol
  T/C: 113 % of control

## C1COCCSCCOCCOCCSCCO1
dose: 100.0 mg/kg/injection, schedule: Q04DX003 (ip), vehicle: Klucel (hydroxypropylcellulose) (HPC)
  T/C: 95 % of control
dose: 200.0 mg/kg/injection, schedule: Q04DX003 (ip), vehicle: Klucel (hydroxypropylcellulose) (HPC)
  T/C: 100 % of control
dose: 400.0 mg/kg/injection, schedule: Q04DX003 (ip), vehicle: Klucel (hydroxypropylcellulose) (HPC)
  T/C: 101 % of control

## CCCCCCCCCCCCCCCCCC[N+]1(CC)CCSCC1
dose: 25.0 mg/kg/injection, schedule: Q01DX001 (ip), vehicle: saline with Tween-80
  T/C: 97 % of control
[13]
  T/C: 98 % of control
[14]
  T/C: 94 % of control
dose: 400.0 mg/kg/injection, schedule: Q01DX001 (ip), vehicle: saline with Tween-80
  T/C: 86 % of control

## Cc1ccc(S(=O)(=O)CC2CCc3ccccc3C2=O)cc1 (stereo not drawn)
[8]
  T/C: 107 % of control
dose: 200.0 mg/kg/injection, schedule: Q04DX002 (ip), vehicle: saline
  T/C: 101 % of control
dose: 400.0 mg/kg/injection, schedule: Q04DX002 (ip), vehicle: saline
  T/C: 104 % of control

## N#C/C(=N\NC(=O)c1ccccc1)c1ccccc1
dose: 12.5 mg/kg/injection, schedule: Q01DX005 (ip), vehicle: saline with Tween-80
  T/C: 100 % of control
[15]
  T/C: 95 % of control
[9]
  T/C: 103 % of control and 95 % of control

## C[N+](C)(C)CCOC(=O)CCC(=O)OCC[N+](C)(C)C
dose: 312.0 micrograms/kg/injection, schedule: Q01DX009 (ip), vehicle: saline
  T/C: 104 % of control
dose: 625.0 micrograms/kg/injection, schedule: Q01DX009 (ip), vehicle: saline
  T/C: 90 % of control
dose: 1250.0 micrograms/kg/injection, schedule: Q01DX009 (ip), vehicle: saline
  T/C: 109 % of control
